# Assay results taken from patent EP0260606A2, “Medicament for curing neurotic disturbance or disorder comprising sialocylglycerolipid” (MECT CORPORATION, priority 1986, dated 1988).
# Values joined by “and” are separate entries in the source; they are usually repeats but may differ in a detail not shown here. Equal values may be shown once. Read-outs that look alike come from different tables or passages of the source. Marks after values point to notes of the source that are not given here.
# Experiments:
# [1] = system: rat having its nigral depaminergic neuron destroyed; assay: Methamphethamine-induced rotational movement after 6-hydroxydopamine lesion and fetal dopaminergic cell transplantation; type: in vivo; settings: for Average of Rotational Movement of Rats (Average + S.D.): group average; for Average of Rotational Movement of Rats (Average + S.D.) / Number of Rotational Movement of Rats: 30 mg/kg; for Number of Rotational Movement of Rats: individual rat, 30 mg/kg every day for two weeks from transplantation; for remedy of motor disturbance: result in words
# Source text: The nigral dopaminergic neuron of the brain of a rat was chemically destroyed by injecting a very small quantity of 6-hydroxydopamine to cause motor disturbance.
# After the lapse of two weeks, a fetal brain dopaminergic cell was transplanted on the Nucleus caudatus of the rat brain to try to remedy the motor disturbance.
# The nigral depaminergic neuron at the left side of the brain of a female Wister family rat aged 4-weeks (Body Weight: l00 g) was destroyed by injecting a very small quantity of 6-hydroxydopamine.
# After two weeks from the destruction by the administration of the drug, portions of the […] containing dopamin cells (i.e. substantia nigra and the Tegmentum at the abdomen side) were extracted from the fetal rat brain of a fetal rat of l4 to l7 days age, cut finely, and treated with trypsin. Then, the extracted tissues were incubated at 37°C for 30 minutes, and the tissues were subjected to pipetting to form a suspension. 5 µl each of the suspensions were transplanted on two sites of the Nucleus caudatus of the destructed side, the total of l0 µl (containing about l0⁵ cells) being transplanted.
# The rotational movements caused by administration of methamphethamine were examined at the time point before 2 weeks of the transplantation (- 2W), at the time point before one week of the transplantation (- lW) and at the time point after two weeks of the transplantation (2W). The number of rotational movements within one minute were counted at l0 minute intervals after six administrations of methamphethamine, and the total number of rotational movements counted for the six times was averaged to find the mean rotational movement. As controls, the numbers of rotational movements of the rats administered, respectively, with a ganglioside mixture and GM₁ ganglioside were counted.
# [2] = system: rats having their sciatic nerves crushed; assay: Curing effect on rats with crushed sciatic nerve (distance between toes, weight of musculi soleus); type: in vivo, rat; settings: for Recovery Rate (%) in Distance between the Fingers / Recovery Rate (%) in Weight of the Muscle: ip once per day, average ± S.D.; for Recovery Rate (%) in Weight of the Muscle: 28th Day
# Experimental: The curing effect of the compound (I) of the invention on the rats having their sciatic nerves crushed, which were used as models caused by peripheral nervous disturbances, was assessed by examining (l) the change in action of the crushed hind leg and (2) the change in weight of the muscle as indicators for the modification of peripheral nerve and for the recovery course of the disturbance.
# In the experiment, seven male Wister family rats (6 weeks age) were used per a group. The sciatic nerve of each rat was crushed in accordance with the method of Yamazu et al. (see Kiyomi Yamazu, Takenori Kaneko, Akifumi Kitahara and Isao Ohkawa, Journal of Japanese Pharmacological Society, 72, 259 - -268 (l976)) and in accordance with the method of Hasegawa et al. (see Kazuo Hasegawa, Naoji Mikuni and Yutaka Sakai, Journal of Japanese Pharmacological Society, 74, 72l - 734 (l978)). Specifically, under anesthesia with Pentobarbital (40 mg/kg, i.p.), the left sciatic nerve was exposed at the femur and the site 5 mm centrally from the branch portion between the N. tibialis and the N. suralis was crushed using a modified artery klemme having a width of 2 mm and gap of 0.l mm. Rats subjected to the operation were randomly dispensed to form the groups subjected to test.
# The compound (I) of the invention was intraperitoneally administered one time per day from the day on which the nerve was crushed to the 22nd day. The control groups included a group administered with Mecobalamin (produced by Gedeon Richter Ltd.), a group administered with a 20% aqueous solution of propylene glycol (hereinafter referred to as 20% PG) which was used to dissolve the compound (I) of the invention, and a group administered with a 0.9% aqueous saline solution. The predetermined measurements were conducted with the lapse of time after the crushing operation (at the first, fourth, seventh, tenth, l4th, l5th, l7th, l9th 2lst and 28th days).
# The distance between the toes was measured, since this is a good indicator showing the modification and recovery of the function of the nerve and the change thereof could conveniently measured with the lapse of time.
# The measurement was conducted in accordance with the method of Hasegawa, (Hasegawa, K., Experientia, 34, 750 - 75l (l978)) by measuring the distance from the first toe to the fifth toe of the hind leg.
# The ratio of the distance at the crushed side to the distance at the normal side was calculated as a percentage (%), the average values and the standard deviations (S.D.) being shown in Table 5.
# It is known that removal of or disturbance in a certain nerve causes atrophy of the muscle controlled by the nerve, and the atrophy is gradually recovered by the recontrol by the nerve. For this reason, the quantitative change in weight of the muscle was selected as an indicator. At 28th day after the operation, the muscli soleus of both hind legs were extracted under anesthesia with Pentobarbital, and the weights of the muscles were weighed. The weight ratio of the muscli soleus at the crushed side to the muscli soleus at the normal side was calculated and represented by percentage (%).
# Acute toxicity test = type: in vivo; settings: mouse, in vivo, mortality at the 7th day, Probit method, read-out: LD₅₀
# Experimental: (§1) The compound (I) was administered through two administration routes, i.e. orally and intravenous injection, to the groups each consisting of five male ddy mice, while increasing the dosage amounts little by little.
# (§2) From the time immediately after the administration to the lapse of 7 days, the general syndrome and death of the mice were inspected. The medial lethal dose (LD₅₀) was calculated, through the Probit method, from the mortality rate at the 7th day from the beginning of administration. LD₅₀ = 58l mg/kg (through intraveous injection) 5000 mg/kg (through oral administration)
# male ddy mice = assay: Acute toxicity test; type: in vivo; settings: result in words
# Experimental: as §1, §2
# [3] = - 1W (before transplantation and dosing)
# [4] = - 2W (before transplantation and dosing)
smiles,measurement,setting,value
CCCCCCCCCCCCCCOCC(COC1(C(=O)O)CC(O)C(NC(C)=O)C(C(O)C(O)CO)O1)OCCCCCCCCCCCCCC (stereo not drawn) [Compound (I)],Average of Rotational Movement of Rats (Average + S.D.),[1]; 2W after transplantation,2.8+4.0*
same,Average of Rotational Movement of Rats (Average + S.D.),[1]; [3],12.3+3.8
same,Average of Rotational Movement of Rats (Average + S.D.),[1]; [4],8.2+3.2
same,Number of Rotational Movement of Rats,[1]; 2W after transplantation,5.3 and 3.2 and 5.8
same,Number of Rotational Movement of Rats,[1]; [3],17.4 and 12.2 and 8.4 and 11.0
same,Number of Rotational Movement of Rats,[1]; [4],12.2 and 5.8 and 5.4 and 9.5
same,remedy of motor disturbance,[1],effect of promoting the remedy of motor disturbance similar to the ganglioside mixtures
same,remedy of motor disturbance,[1]; listed as compound (I),had a function of remedying the nerves similar to gangliosides
same,Recovery Rate (%) in Distance between the Fingers,"[2]; 17th Day, 3 mg/kg, crushed side / normal side",71.5 ± 5.5 %
same,Recovery Rate (%) in Distance between the Fingers,"[2]; 17th Day, 30 mg/kg",80.4 ± 9.6 %
same,Recovery Rate (%) in Distance between the Fingers,"[2]; 19th Day, 3 mg/kg",82.1 ± 9.7%
same,Recovery Rate (%) in Distance between the Fingers,"[2]; 19th Day, 30 mg/kg",90.3 ± 4.4 %
same,Recovery Rate (%) in Weight of the Muscle,"[2]; 3 mg/kg, musculi soleus, crushed side / normal side",82.8 ± 6.7%
same,Recovery Rate (%) in Weight of the Muscle,[2]; 30 mg/kg,89.1 ± 5.7%
same,recovery of the distance between the toes and the weight of the musculi soleus,[2]; result in words,promoted the recovery to the normal values
same,LD50 at 168 h,Acute toxicity test; intravenous injection,581 mg/kg
same,LD50 at 168 h,Acute toxicity test; oral administration,5000 mg/kg
same,toxicity,male ddy mice,extremely low toxicity
